Tests used:
Type in all cases: in vivo, soybean
[1] = system: mutant line W20; test: Test B postemergence cross resistance test; settings: Glycine max, post-emergence
Description: (§1) In the second postemergence test, six true-breeding resistant mutant lines (W4, W17, W19, W20, W23, and W28) were compared to Williams 82 for cross resistance to a broad range of ALS inhibitors including eight sulfonylureas and three imidazolinones. Two seeds were planted in each 10 cm pot and allowed to grow to the second trifoliolate stage. Pots were not thinned back if both plants were at the proper stage. For each of 11 herbicides, two rates (Table VII) were selected based on previous data: the low rate was expected to cause significant injury (but not death) to Williams 82 and the high rate was expected to severely injure or kill Williams 82. All but a few line x rate treatments were replicated twice.
In both postemergence tests, plants were returned to the greenhouse after treatment and provided with ample light, moisture, and nutrients to support healthy plant growth. Two to three ratings per pot were recorded over a three-week period and averaged to obtain a single value for each pot For each herbicide, analysis of variance on injury ratings was performed separately. Fisher's least significant difference (LSD) was used to determine the significance of line mean differences at each herbicide rate using the 95% level of confidence.

[2] = system: mutant W19; test: Test A postemergence herbicide spray, greenhouse pots
Description: (§2) In the first post-emergence test, two true-breeding resistant mutant lines, W19 and W20, were compared to previously isolated tolerant mutants and wild-type Williams 82. Eighteen pots (20 cm diameter) of each soybean line (2 seeds per pot) were planted using a standard sterile potting mix. When the seedlings reached the second trifoliolate stage, plants were thinned back to one plant per pot. Each pot was then sprayed with a specific herbicide treatment using a conveyor belt spray apparatus to emulate field application. The nine different herbicide treatments included one rate (8 g/ha) of Compound 1 and two rates (8 and 32 g/ha) each of four other sulfonylurea herbicides (Compounds 2,3,7 and 8) (see Table VI) using a factorial treatment design with 2 replications.
(§3) In both postemergence tests, plants were returned to the greenhouse after treatment and provided with ample light, moisture, and nutrients to support healthy plant growth. Two to three ratings per pot were recorded over a three-week period and averaged to obtain a single value for each pot For each herbicide, analysis of variance on injury ratings was performed separately. Fisher's least significant difference (LSD) was used to determine the significance of line mean differences at each herbicide rate using the 95% level of confidence. […]

[3] = system: mutant W20; test: as above
Description: as §2, §3

[4] = system: Williams 82; test: as above
Description: as §2, §3

[5] = system: Mutant 1-184A; test: as above
Description: as §2, §3

[6] = system: mutant line W28; test: Test B postemergence cross resistance test; settings: Glycine max, post-emergence
Description: as §1, §3

[7] = system: mutant line W17; test: Test B postemergence cross resistance test; settings: Glycine max, post-emergence
Description: as §1, §3

[8] = system: mutant line W23; test: Test B postemergence cross resistance test; settings: Glycine max, post-emergence
Description: as §1, §3

[9] = system: mutant line W4; test: Test B postemergence cross resistance test; settings: Glycine max, post-emergence
Description: as §1, §3

[10] = system: Williams 82; test: Test B postemergence cross resistance test; settings: Glycine max, post-emergence
Description: as §1, §3

[11] = system: mutant line W19; test: Test B postemergence cross resistance test; settings: Glycine max, post-emergence
Description: as §1, §3

[12] = system: Mutant W4-4; test: Postemergence herbicide spray test of W4-4 (Table VII-A); settings: two weeks after treatment
Protocol: (§4) To investigate this hypothesis, a postemergence herbicide spray test was conducted to compare the reaction of W4-4 to both W20 and wild-type Williams. The applicant was particularly interested in the resistance of W4-4 to herbicide treatments that were injurious to both Williams and W20 in a previous test (Table VII). […] Twenty-four plants each of W4-4, W20, and Williams were planted in separate 10 cm pots and allowed to grow to the second trifoliolate stage. Each pot constituted a single experimental unit receiving a single herbicide treatment. Herbicide treatments (Table VIIA) were applied as described for the first postemergence test and were replicated twice. Control plants were sprayed with the spray carrier solution only (water with 0.25% X77 surfactant). At two weeks after treatment, each plant was rated for % herbicide injury as described in Table VIII. Analysis of variance on injury ratings was performed separately for each herbicide to calculate treatment means and standard errors. Fisher's least significant difference (LSD) was used to determine the significance of line means differences at each herbicide rate using the 95% level of confidence. […]

[13] = system: mutant W20; test: as above; settings: two weeks after treatment
Protocol: as §4

[14] = system: Williams 82; test: as above; settings: two weeks after treatment
Protocol: as §4

For COC(=O)c1sccc1S(=O)(=O)NC(=O)Nc1nc(C)nc(OC)n1 [Compound 2, Methyl 3-[[[[(4-methoxy-6-methyl-1,3,5-triazine-2-yl)amino]carbonyl]amino]sulfonyl]-2-thiophenecarboxylate], the percent crop injury at 16 g/ha ([1]; W20, 16 g/ha postemergence) was 5%, the percent crop injury at 64 g/ha ([1]; W20, 64 g/ha postemergence) was 5% and the mean % injury ([2]; W19, 8 g/ha postemergence) was 0%. The mean % injury ([2]; W19, 32 g/ha postemergence) was 7%, the mean % injury ([3]; W20, 8 g/ha postemergence) was 0% and the mean % injury ([3]; W20, 32 g/ha postemergence) was 6%. It also gave a mean % injury ([4]; WM 82, 8 g/ha postemergence) of 13%, a mean % injury ([4]; WM 82, 32 g/ha postemergence) of 63% and a mean % injury ([5]; 8 g/ha postemergence) of 13%. It also gave a mean % injury ([5]; 32 g/ha postemergence) of 58%, a mean % injury to soybean at 16 g/ha ([6]; W28, 16 g/ha postemergence) of 0% and a mean % injury to soybean at 64 g/ha ([6]; W28, 64 g/ha postemergence) of 5%. The soybean crop injury (%) at 16 g/ha ([7]; W17, 16 g/ha postemergence) was 0%, the soybean crop injury (%) at 64 g/ha ([7]; W17, 64 g/ha postemergence) was 3% and the percent soybean injury at 16 g/ha ([8]; W23, 16 g/ha postemergence) was 0%. The percent soybean injury at 64 g/ha ([8]; W23, 64 g/ha postemergence) was 8%, the % crop injury at 16 g/ha ([9]; W4, 16 g/ha postemergence) was 0% and the % crop injury at 64 g/ha ([9]; W4, 64 g/ha postemergence) was 5%. It also gave a soybean crop injury at 16 g/ha ([10]; Wm 82, 16 g/ha postemergence) of 70%, a soybean crop injury at 64 g/ha ([10]; Wm 82, 64 g/ha postemergence) of 91% and a percent soybean crop injury at 16 g/ha ([11]; W19, 16 g/ha postemergence) of 0%. The percent soybean crop injury at 64 g/ha ([11]; W19, 64 g/ha postemergence) was 6%.
COC(=O)c1ccccc1S(=O)(=O)NC(=O)N(C)c1nc(C)nc(OC)n1 [Compound 3, Methyl 2-[[[[N-(4-methoxy-6-methyl-1,3,5-triazin-2-yl)N-methylamino]carbonyl]amino]sulfonyl]benzoate] showed a percent crop injury at 2 g/ha ([1]; W20, 2 g/ha postemergence) of 0%, a mean % injury ([2]; W19, 8 g/ha postemergence) of 14% and a mean % injury ([2]; W19, 32 g/ha postemergence) of 63%. For the same compound, the mean % injury ([3]; W20, 8 g/ha postemergence) was 8%, the mean % injury ([3]; W20, 32 g/ha postemergence) was 63% and the mean % injury ([4]; WM 82, 8 g/ha postemergence) was 92%. It also gave a mean % injury ([4]; WM 82, 32 g/ha postemergence) of 95%, a mean % injury ([5]; 8 g/ha postemergence) of 90% and a mean % injury ([5]; 32 g/ha postemergence) of 91%. For the same compound, the mean % injury to soybean at 2 g/ha ([6]; W28, 2 g/ha postemergence) was 8%, the mean % injury to soybean at 8 g/ha ([6]; W28, 8 g/ha postemergence) was 21% and the soybean crop injury (%) at 2 g/ha ([7]; W17, 2 g/ha postemergence) was 0%. For the same compound, the soybean crop injury (%) at 8 g/ha ([7]; W17, 8 g/ha postemergence) was 25%, the percent soybean injury at 2 g/ha ([8]; W23, 2 g/ha postemergence) was 0% and the percent soybean injury at 8 g/ha ([8]; W23, 8 g/ha postemergence) was 45%. The % crop injury at 2 g/ha ([9]; W4, 2 g/ha postemergence) was 3%, the % crop injury at 8 g/ha ([9]; W4, 8 g/ha postemergence) was 18% and the soybean crop injury at 2 g/ha ([10]; Wm 82, 2 g/ha postemergence) was 60%. The soybean crop injury at 8 g/ha ([10]; Wm 82, 8 g/ha postemergence) was 94%, the percent soybean crop injury at 2 g/ha ([11]; W19, 2 g/ha postemergence) was 5% and the percent soybean crop injury at 8 g/ha ([11]; W19, 8 g/ha postemergence) was 29%.
Work on CCS(=O)(=O)c1cccnc1S(=O)(=O)NC(=O)Nc1nc(OC)cc(OC)n1 [Compound 7, N-[[(4,6-dimethoxy-2-pyrimidinyl)amino]carbonyl]-3-(ethylsulfonyl)-2-pyridinesulfonamide] yielded a percent crop injury at 1 g/ha ([1]; W20, 1 g/ha postemergence) of 28%, a percent crop injury at 4 g/ha ([1]; W20, 4 g/ha postemergence) of 66% and a mean % injury ([2]; W19, 8 g/ha postemergence) of 65%. The mean % injury ([2]; W19, 32 g/ha postemergence) was 80%, the mean % injury ([3]; W20, 8 g/ha postemergence) was 65% and the mean % injury ([3]; W20, 32 g/ha postemergence) was 84%. The mean % injury ([4]; WM 82, 8 g/ha postemergence) was 95%, the mean % injury ([4]; WM 82, 32 g/ha postemergence) was 93% and the mean % injury ([5]; 8 g/ha postemergence) was 93%. For the same compound, the mean % injury ([5]; 32 g/ha postemergence) was 93%, the mean % injury to soybean at 1 g/ha ([6]; W28, 1 g/ha postemergence) was 20% and the mean % injury to soybean at 4 g/ha ([6]; W28, 4 g/ha postemergence) was 54%. For the same compound, the soybean crop injury (%) at 1 g/ha ([7]; W17, 1 g/ha postemergence) was 16%, the soybean crop injury (%) at 4 g/ha ([7]; W17, 4 g/ha postemergence) was 55% and the percent soybean injury at 1 g/ha ([8]; W23, 1 g/ha postemergence) was 31%. The percent soybean injury at 4 g/ha ([8]; W23, 4 g/ha postemergence) was 60%, the % crop injury at 1 g/ha ([9]; W4, 1 g/ha postemergence) was 21% and the % crop injury at 4 g/ha ([9]; W4, 4 g/ha postemergence) was 69%. For the same compound, the soybean crop injury at 1 g/ha ([10]; Wm 82, 1 g/ha postemergence) was 61%, the soybean crop injury at 4 g/ha ([10]; Wm 82, 4 g/ha postemergence) was 98% and the percent soybean crop injury at 1 g/ha ([11]; W19, 1 g/ha postemergence) was 19%. The percent soybean crop injury at 4 g/ha ([11]; W19, 4 g/ha postemergence) was 65%, the mean % injury ([12]; W4-4, 4 g/ha postemergence) was 10% and the mean % injury ([12]; W4-4, 16 g/ha postemergence) was 30%. For the same compound, the mean % injury ([12]; W4-4, 32 g/ha postemergence) was 43%, the mean % injury ([13]; W20, 4 g/ha postemergence) was 28% and the mean % injury ([13]; W20, 16 g/ha postemergence) was 43%. It also gave a mean % injury ([13]; W20, 32 g/ha postemergence) of 83%, a mean % injury ([14]; WM82, 4 g/ha postemergence) of 83% and a mean % injury ([14]; WM82, 16 g/ha postemergence) of 93%. The mean % injury ([14]; WM82, 32 g/ha postemergence) was 90%.
